Where a name gives a salt, the structure may show the parent alone.
Legend:
[1] = Inhibition of cross-linking of N-acetyl glycyl-lysine methyl ester in the presence of ribose (fluorescence); format: biochemical; details: 0.5 M sodium phosphate buffer pH 7.4, 37° C, 16-24 hours, fluorescence 350/400 nm
Experimental: The following method was used to evaluate the ability of the compounds of the present invention to inhibit the cross-linking of N-acetyl glycyl-lysine methyl ester in the presence of ribose. […] Reaction mixtures are prepared as follows: [table] […] At the end of the incubation period reaction mixture is diluted with 3 ml distilled water and the fluorescence is read using an excitation wavelength of 350 nm and emission wavelength of 400 nm.

[2] = system: fixed protein (gelatin, i.e., collagen) surface; assay: Surface browning experiment on gelatin/paper disks in glucose-6-phosphate; details: 100 mM glucose-6-phosphate, one week at 50°C; Peridex® at a final concentration of 0.04% chlorhexidine
Experimental: To further study the ability of inhibitors of nonenzymatic browning to prevent the discoloration of protein on a surface, such as that which occurs on the tooth surface, the following surface browning experiment is performed. As a substitute for a pellicle-covered tooth surface, unexposed and developed photographic paper is used to provide a fixed protein (gelatin, i.e., collagen) surface on a paper backing. Five millimeter circles are punched and immersed for one week at 50°C in a solution of 100 mM glucose-6-phosphate in a 0.5 M phosphate buffer, pH 7.4, containing 3 mM sodium azide. […] In addition to the glucose-6-phosphate, chlorhexidine and/or a compound of Formula I are included. After incubation, the gelatin/paper disks are rinsed with water, observed for brown color, and photographed.

Molecule	IC50 [1] [µM]	brown color of gelatin/paper disks [2]
Nc1nnc(Cc2ccccc2[N+](=O)[O-])c(=O)n1N [3,4-diamino-6-(2'-nitrobenzyl)-1,2,4-triazine-5(4H)-one hydrochloride]	900	
[H]/N=C(\N/C(=N/[H])NCCCCCCNC(=N)NC(=N)Nc1ccc(Cl)cc1)Nc1ccc(Cl)cc1 [chlorhexidine]		significant browning
Nc1nnc(Cc2ccc(O)cc2)c(=O)n1N [3,4-diamino-6-(4-hydroxybenzyl)-1,2,4-triazine-5(4H)-one hydrochloride]	4400	
CCOC(=O)CCc1nnc(N)n(N)c1=O [3,4-diamino-6-(2'-ethoxycarbonylethyl)-1,2,4-triazine-5(4H)-one hydrochloride]	840	
CC(C)(CO)c1nnc(N)n(N)c1=O [3,4-diamino-6-(1',1'-dimethyl-2'-hydroxyethyl)-1,2,4-triazine-5(4H)-one]	970	
Nc1nnc(CCc2ccccc2)c(=O)n1N [3,4-diamino-6-phenethyl-1,2,4-triazine-5(4H)-one hydrochloride]	2700	
CCC(C)c1nnc(N)n(N)c1=O (centres unmarked) [3,4-diamino-6-(1-methylpropyl)-1,2,4-triazine-5(4H)-one]	1400	
CCCCCCC(C(=O)OCC)c1nnc(N)n(N)c1=O (centres unmarked) [3,4-diamino-6-(1'-ethoxycarbonylheptyl)-1,2,4-triazine-5(4H)-one hydrochloride]	480	
CCOC(=O)c1nnc(N)n(N)c1=O [3,4-diamino-6-carboxyethyl-1,2,4-triazine-5(4H)-one hydrochloride]	720	
Nc1nnc(CCC(=O)O)c(=O)n1N [3,4-diamino-6-(2'-carboxyethyl)-1,2,4-triazine-5(4H)-one]	1970	
CCOC(=O)C(C)c1nnc(N)n(N)c1=O (centres unmarked) [3,4-diamino-6-(1'-ethoxycarbonylethyl)-1,2,4-triazine-5(4H)-one hydrochloride]	1650	

Further lines, with some results ahead:

IC50 [1] [µM]	Molecule	brown color of gelatin/paper disks [2]
1160	CC(C)Cc1nnc(N)n(N)c1=O [3,4-diamino-6-(2-methypropyl)-1,2,4-triazine-5(4H)-one]	
> 10000	NNc1nncc(=O)n1N [4-amino-3-hydrazino-1,2,4-triazin-5(4H)-one hydrochloride]	
1200	Nc1nnc(Cc2ccccc2)c(=O)n1N [3,4-diamino-6-benzyl-1,2,4-triazine-5(4H)-one hydrochloride]	
2000	CCc1nnc(N)n(N)c1=O [3,4-diamino-6-ethyl-1,2,4-triazine-5(4H)-one hydrochloride]	
350	COc1ccc(C=Cc2nnc(N)n(N)c2=O)cc1OC [3,4-diamino-6-(3,4-dimethoxystyryl)-1,2,4-triazine-5(4H)-one hydrochloride]	
730	NNC(=O)c1nnc(N)n(N)c1=O [6-(3',4'-diamino-5(4H)-one-1,2,4-triazinyl)hydrazide]	
1500	NNC(=O)CCc1nnc(N)n(N)c1=O [3-[6'-(3',4'-diamino-5'(4H)-one-1',2',4'-triazinyl)]-propionic hydrazide hydrochloride]	
2000	Nc1nnc(C2CC2)c(=O)n1N [3,4-diamino-6-cyclopropyl-1,2,4-triazine-5(4H)-one]	
> 10000	COc1cccc(C(=O)Cc2nnc(N)n(N)c2=O)c1 [3,4-diamino-6-(3'-methoxyphenylcarbonylmethylene)-1,2,4-triazine-5(4H)-one hydrochloride]	
1300	CCCc1nnc(N)n(N)c1=O [3,4-diamino-6-propyl-1,2,4-triazine-5(4H)-one hydrochloride]	
830	2-methyl-[6'-(3',4'-diamino-5(4H)-one-1,2,4-triazinyl)]hydrazide	
1230	Cc1nnc(N)n(N)c1=O [3,4-diamino-6-methyl-1,2,4-triazine-5(4H)-one]	
< 3000	Cc1nnc(NN)n(N)c1=O [4-amino-3-hydrazino-6-methyl-1,2,4-triazin-5(4H)-one hydrochloride]	
> 1000	NNc1nnc(Cc2ccc(O)cc2)c(=O)n1N [4-amino-3-hydrazino-6-(4'-hydroxybenzyl)-1,2,4-triazin-5(4H)-one hydrochloride]	
1050	CC(C)c1nnc(N)n(N)c1=O [3,4-diamino-6-isopropyl-1,2,4-triazine-5(4H)-one hydrochloride]	
